Measurements: patent publication US20180371044A1, “PEPTIDOMIMETIC MACROCYCLES” (Aileron Therapeutics, Inc., priority 2015, published 2018)
Where a SMILES comes first, the peptide text is derived from it. Bridges are numbered along the chain shown (N, C = ends). [ ]: non-standard residue; d: D form. S5 = C=CCCC[C@](C)(N)C(=O)O; Nle = CCCC[C@H](N)C(=O)O

Columns and labels:
Plasma compatibility = format: physicochemical
Description: The plasma compatibility of exemplary peptidomimetic macrocycles was also determined. Peptidomimetic macrocycles with a plasma compatability value (PC) that is greater than 0.1 were determined as being plasma compatible.

[1] = Plasma PK/PD study in rats; format: in vivo, rat; settings: male Sprague-Dawley rats
Description: Five peptidomimetic macrocycles of the invention, as well as sermorelin, were studied to determine pharmacokinetic and pharmacodynamic parameters in rats. Male Sprague-Dawley rats (300 g, non-fasted, cannulated) were used. The study had three arms: IV administration, SC administration, and SC administration (vehicle control). For experiments using sermorelin, a dose level of 3 mg/kg IV/SC bolus was used (dose volume of […] dose and dose concentration of 1 mg/mL). The vehicle used was: 10 wt % N, N-Dimethylacetamide, 10 wt % DMSO, 2 wt % Solutol HS 15 in water for injection containing 45 mg/mL (4.5 wt %) Mannitol and 25 mM (0.38 wt %) Histidine (pH 7.5; 320 mOsm/kg). The peptide was first dissolved at high concentration in DMA and DMSO before a second dilution in Solutol vehicle.
For experiments using peptidomimetic macrocycles, 0.1 mL of DMA and 0.1 mL of DMSO were used to combine with each mg of macrocycle (˜4.3-4.5 mg of macrocycle used in each experiment). Sonication was used to ensure complete solubilization. 0.8 mL of Solutol vehicle was used for each mg of macrocycle in DMA/DMSO. The solutions were mixed gently with pipet or light vortexing. Fresh vials were used for each day of dosing, and macrocycles were stored solid at −20° C. prior to formulation.
For each study arm, 2 rats were bled (350 μL) at specific time points (5 min, 15 min, 30 min, 1 h, 2 h, 4 h, 8 h, 24 h, and 48 h) and a 150 μL bleed was performed just before dosing. Plasma was prepared into K2EDTA tubes by centrifuging for 20 minutes at 4° C. at 2000G maximum 30 minutes after collection. From each 350 μL bleed, 120 μL were transferred to one tube for PK studies and 50 μL to another tube for PD studies and frozen immediately. From the 150 μL bleed, 70 μL were transferred to one tube for PD studies and frozen immediately.

| Plasma Compatability (Plasma compatibility) | AUC Ext (%) [1] | MRT ([1]; rat, 3 mg/kg) | clearance ([1]; rat, 3 mg/kg, read-out: Clp (converted)) | Vd ([1]; rat, 3 mg/kg, read-out: Vdss) | half-life ([1]; rat, 3 mg/kg, read-out: t ½ (converted)) | AUC(0-inf) ([1]; rat, 3 mg/kg, route not given) | Compound |
| --- | --- | --- | --- | --- | --- | --- | --- |
| 1.6 mg/mL |  |  |  |  |  |  | CCCC[C@H](NC(=O)[C@@H](NC(=O)[C@H](CC(=O)O)NC(=O)[C@H](CCC(N)=O)NC(=O)[C@H](CC(C)C)NC(=O)[C@H](C)NC(=O)[C@H](CCCCN)NC(=O)[C@H](CCCNC(=N)N)NC(=O)[C@H](C)NC(=O)[C@H](CO)NC(=O)[C@]1(C)CCCC=CCCC[C@](C)(NC(=O)[C@H](CCCCN)NC(=O)[C@H](CCCNC(=N)N)NC(=O)[C@H](Cc2ccc(O)cc2)NC(=O)[C@H](CO)NC(=O)[C@H](CCC(N)=O)NC(=O)[C@@H](NC(=O)[C@H](Cc2ccccc2)NC(=O)[C@@H](NC(=O)[C@H](C)NC(=O)[C@H](CC(=O)O)NC(=O)[C@@H](C)NC(=O)[C@@H](N)Cc2ccc(O)cc2)[C@@H](C)CC)[C@@H](C)O)C(=O)N[C@@H](CC(C)C)C(=O)N[C@@H](C)C(=O)N[C@@H](CCC(N)=O)C(=O)N1)[C@@H](C)CC)C(=O)N[C@@H](CO)C(=O)N[C@@H](CCCNC(=N)N)C(N)=O (single isomer, unassigned) [SP-108] |
| 3.5 mg/mL | 13.8% | 1.6 h | 2.85 mL/min/kg | 0.267 L/kg | 55.1 h | 17500 ng·h/mL | CC/C=C/CC(=O)N[C@@H](Cc1ccc(O)cc1)C(=O)N[C@@H](C)C(=O)N[C@@H](CC(=O)O)C(=O)N[C@@H](C)C(=O)N[C@H](C(=O)N[C@@H](Cc1ccccc1)C(=O)N[C@H](C(=O)N[C@@H](CC(N)=O)C(=O)N[C@@H](CO)C(=O)N[C@@H](Cc1ccc(O)cc1)C(=O)N[C@@H](CCCNC(=N)N)C(=O)N[C@@H](CCCCN)C(=O)N[C@H](C(=O)N[C@@H](CC(C)C)C(=O)NCC(=O)N[C@@H](CCC(N)=O)C(=O)N[C@@H](CC(C)C)C(=O)N[C@@H](CO)C(=O)N[C@@H](C)C(=O)N[C@@H](CCCNC(=N)N)C(=O)N[C@@H](CCCCN)C(=O)N[C@@H](CC(C)C)C(=O)N[C@@H](CC(C)C)C(=O)N[C@@H](CCC(N)=O)C(=O)N[C@@H](CC(=O)O)C(=O)N[C@H](C(=O)N[C@@H](CCSC)C(=O)N[C@@H](CO)C(=O)N[C@@H](CCCNC(=N)N)C(=O)N[C@@H](CCC(N)=O)C(=O)N[C@@H](CCC(N)=O)C(=O)NCC(=O)N[C@@H](CCC(=O)O)C(=O)N[C@@H](CO)C(=O)N[C@@H](CC(N)=O)C(=O)N[C@@H](CCC(N)=O)C(=O)N[C@@H](CCC(=O)O)C(=O)N[C@@H](CCCNC(=N)N)C(=O)NCC(=O)N[C@@H](C)C(=O)N[C@@H](CCCNC(=N)N)C(=O)N[C@@H](C)C(=O)N[C@@H](CCCNC(=N)N)C(=O)N[C@@H](CC(C)C)C(N)=O)[C@@H](C)CC)C(C)C)[C@@H](C)O)[C@@H](C)CC [SP-1, reference compound] |
| 0.9 mg/mL |  |  |  |  |  |  | CCCC[C@@H]1NC(=O)[C@H](C)NC(=O)[C@H](CC(C)C)NC(=O)[C@@](C)(NC(=O)[C@H](CCCCN)NC(=O)[C@H](CCCNC(=N)N)NC(=O)[C@H](Cc2ccc(O)cc2)NC(=O)[C@H](CO)NC(=O)[C@H](CCC(N)=O)NC(=O)[C@@H](NC(=O)[C@H](Cc2ccccc2)NC(=O)[C@@H](NC(=O)[C@H](C)NC(=O)[C@H](CC(=O)O)NC(=O)[C@@H](C)NC(=O)[C@@H](N)Cc2ccc(O)cc2)[C@@H](C)CC)[C@@H](C)O)CCCC=CCCC[C@@](C)(C(=O)N[C@@H](CO)C(=O)N[C@@H](C)C(=O)N[C@@H](CCCNC(=N)N)C(=O)N[C@@H](CCCCN)C(=O)N[C@@H](C)C(=O)N[C@@H](CC(C)C)C(=O)N[C@@H](CCC(N)=O)C(=O)N[C@@H](CC(=O)O)C(=O)N[C@H](C(=O)N[C@@H](CCCC)C(=O)N[C@@H](CO)C(=O)N[C@@H](CCCNC(=N)N)C(N)=O)[C@@H](C)CC)NC1=O [SP-106] (H-Y[dA]DAIFTQSYRK[S5]LA[Nle][S5]SARKALQDI[Nle]SR-NH2; staple 13-17) |
| 1.2 mg/mL |  |  |  |  |  |  | CCCC[C@H](NC(=O)[C@@H](NC(=O)[C@H](CC(=O)O)NC(=O)[C@H](CCC(N)=O)NC(=O)[C@H](CC(C)C)NC(=O)[C@H](C)NC(=O)[C@H](CCCCN)NC(=O)[C@H](CCCNC(=N)N)NC(=O)[C@H](C)NC(=O)[C@H](CO)NC(=O)[C@]1(C)CCCC=CCCC[C@](C)(NC(=O)[C@H](CCCCN)NC(=O)[C@H](CCCNC(=N)N)NC(=O)[C@H](Cc2ccc(O)cc2)NC(=O)[C@H](CO)NC(=O)[C@H](CCC(N)=O)NC(=O)[C@@H](NC(=O)[C@H](Cc2ccccc2)NC(=O)[C@@H](NC(=O)[C@H](C)NC(=O)[C@H](CC(=O)O)NC(=O)[C@@H](C)NC(=O)[C@@H](N)Cc2ccc(O)cc2)[C@@H](C)CC)[C@@H](C)O)C(=O)N[C@@H](CC(C)C)C(=O)N[C@@H](C)C(=O)N[C@@H](CCC(=O)O)C(=O)N1)[C@@H](C)CC)C(=O)N[C@@H](CO)C(=O)N[C@@H](CCCNC(=N)N)C(N)=O [SP-105] (H-Y[dA]DAIFTQSYRK[S5]LAE[S5]SARKALQDI[Nle]SR-NH2; staple 13-17) |
